What all share (type): in vivo
The test system of test [1] is Pseudoperonospora cubensis. Nature of the test: Cucumber downy mildew (PSPECU), disease control on cucumber seedlings. The settings on record: 24 h, 1DP (1 Day Protectant) test at 100 ppm. The protocol:
Technical grades of materials were dissolved in acetone, which were then mixed with nine volumes of water containing 110 ppm Triton X-100. The fungicide solutions were applied onto wheat seedlings using an automated booth sprayer to run-off. All sprayed plants were allowed to air dry prior to further handling. All fungicides were evaluated using the aforementioned method for their activity vs. all target diseases, unless stated otherwise. Wheat leaf blotch and brown rust activity were also evaluated using track spray applications, in which case the fungicides were formulated as EC formulations, containing 0.1% Trycol 5941 in the spray solutions. Cucumber seedlings (variety Bush Pickle) were grown in soil-less Metro mix, with one plant per pot, and used in the test when 12 to 14 days old. Plants were inoculated with a spore suspension 24 hr following fungicide treatments. Test plants were inoculated with an aqueous spore suspension of Pseudoperonospora cubensis 24 hr after fungicide treatments. After inoculation the plants were kept in a dew room at 22° C. with 100% relative humidity for 24 hr to permit spores to germinate and infect the leaf. The plants were then transferred to a greenhouse set at 20° C. until disease was fully expressed. Fungicide formulation, application and disease assessment on the sprayed leaves followed the procedures as described in the Example A.

For test [2], the system named is Magnaporthe grisea; Anamorph: Pyricularia oryzae. Nature of the test: whole plant or invertebrate. The settings on record: 24 h, read-out: PYRIOR Disease Control.
The subject of a further test is Phakopsora pachyrhizi. The test is described as follows: Asian soybean rust (PHAKPA), disease control on soybean seedlings. The settings on record: High volume application at 25 ppm. Summed up:
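Two-week-old Williams 82 soybean seedlings were sprayed to run-off with compound in acetone/water (1:9) containing 0.011% Tween 20. Inoculation was 3 days before (curative) or 1 day after (protectant) treatment, followed by 24 h dark dew at 22 °C, 100% RH, then 23 °C; disease severity scored on sprayed leaves.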

Another test has as its system Puccinia triticina. The test is described as follows: Wheat brown rust (PUCCRT), disease control on wheat seedlings. The settings on record: low volume application at 121.5 g/H. Summed up: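 Compounds in acetone, diluted with nine volumes of water containing 110 ppm Triton X-100, sprayed to run-off on first-leaf Yuma wheat seedlings; track-spray tests used EC formulations with 0.1% Trycol 5941. Puccinia triticina spores applied before or after treatment. Overnight dark dew room at 22° C, 100% humidity, then greenhouse at 24° C.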

Another test deals with Rhyncosporium secalis. The test is described as follows: Barley scald (RHYNSE), disease control on barley seedlings. The settings on record: Hordeum vulgare, 24 h, 1DP (1 Day Protectant) test at 100 ppm. How it is done: Technical grades of materials were dissolved in acetone, which were then mixed with nine volumes of water containing 110 ppm Triton X-100. The fungicide solutions were applied onto wheat seedlings using an automated booth sprayer to run-off. All sprayed plants were allowed to air dry prior to further handling. All fungicides were evaluated using the aforementioned method for their activity vs. all target diseases, unless stated otherwise. Wheat leaf blotch and brown rust activity were also evaluated using track spray applications, in which case the fungicides were formulated as EC formulations, containing 0.1% Trycol 5941 in the spray solutions. Barley seedlings (variety Harrington) were propagated in soil-less Metro mix, with each pot having 8 to 12 plants, and used in the test when first leaf was fully emerged. Test plants were inoculated by an aqueous spore suspension of Rhyncosporium secalis 24 hr after fungicide treatments. After inoculation the plants were kept in a dew room at 20° C. with 100% relative humidity for 48 hr. The plants were then transferred to a greenhouse set at 20° C. for disease to develop. Fungicide formulation, application and disease assessment on the sprayed leaves followed the procedures as described in the Example A.

Test [3] relates to Glomerella lagenarium; Anamorph: Colletotrichum lagenarium. The test is described as follows: Cucumber anthracnose (COLLLA), disease control on cucumber seedlings. The settings on record: Colletotrichum orbiculare, 1DP test at 100 ppm, read-out: COLLLA disease control rating. The protocol:
Technical grades of materials were dissolved in acetone, which were then mixed with nine volumes of water containing 110 ppm Triton X-100. The fungicide solutions were applied onto wheat seedlings using an automated booth sprayer to run-off. All sprayed plants were allowed to air dry prior to further handling. All fungicides were evaluated using the aforementioned method for their activity vs. all target diseases, unless stated otherwise. Wheat leaf blotch and brown rust activity were also evaluated using track spray applications, in which case the fungicides were formulated as EC formulations, containing 0.1% Trycol 5941 in the spray solutions. Cucumber seedlings (variety Bush Pickle) were propagated in soil-less Metro mix, with each pot having one plant, and used in the test when 12 to 14 days old. Test plants were inoculated with an aqueous spore suspension of Colletotrichum lagenarium 24 hr after fungicide treatments. After inoculation the plants were kept in a dew room at 22° C. with 100% relative humidity for 48 hr to permit spores to germinate and infect the leaf. The plants were then transferred to a growth room set at 22° C. for disease to develop. Fungicide formulation, application and disease assessment on the sprayed leaves followed the procedures as described in the Example A.

For the next test, the system named is Cercospora beticola. The test is described as follows: Leaf spot of sugar beets (CERCBE), disease control on sugar beet plants. The settings on record: 1DP test at 100 ppm, read-out: CERCBE disease control rating. The protocol: Technical grades of materials were dissolved in acetone, which were then mixed with nine volumes of water containing 110 ppm Triton X-100. The fungicide solutions were applied onto wheat seedlings using an automated booth sprayer to run-off. All sprayed plants were allowed to air dry prior to further handling. All fungicides were evaluated using the aforementioned method for their activity vs. all target diseases, unless stated otherwise. Wheat leaf blotch and brown rust activity were also evaluated using track spray applications, in which case the fungicides were formulated as EC formulations, containing 0.1% Trycol 5941 in the spray solutions. Sugar beet plants (variety HH88) were grown in soil-less Metro mix and trimmed regularly to maintain a uniform plant size prior to test. Plants were inoculated with a spore suspension 24 hr after fungicide treatments. Inoculated plants were kept in a dew chamber at 22° C. for 48 hr then incubated in a greenhouse set at 24° C. under a clear plastic hood with bottom ventilation until disease symptoms were fully expressed. Fungicide formulation, application and disease assessment on the sprayed leaves followed the procedures as described in the Example A.

The mark [4] stands for this setting: 24 h, 1 Day Protectant, read-out: PHAKPA 1DP disease control rating.
Where [5] appears, read: 72 h, 3 Day Curative, read-out: PHAKPA 3DC disease control rating.
[6] abbreviates: 24 h, 1 Day Protectant, read-out: PUCCRT disease control, 1DP, LV activity.
The mark [7] stands for this setting: 72 h, 3 Day Curative, read-out: PUCCRT disease control, 3DC, LV activity.
Setting [8] is: 24 h, 1 Day Protectant, wheat brown rust, read-out: PUCCRT 1DP disease control, LV activity.
Setting [9] is: 72 h, 3 Day Curative, wheat brown rust, read-out: PUCCRT 3DC disease control, LV activity.

Each structure is given as a SMILES string. Where two headings read alike, the source gives them in different places. A value given as a limit tells only on which side of the number the result lay.

`CCC(CC)[C@@H](c1ccc(F)cc1C)[C@H](C)OC(=O)[C@H](C)NC(=O)c1nccc(OC)c1OC(C)=O` [Compound 187]: the pest or weed control at 100 ppm in test [1] was less than 0%; in test [2], greater than 80%; in the test with Rhyncosporium secalis, greater than 80%; in test [3], greater than 80%; in the test with Cercospora beticola, greater than 80%. Also, the pest or weed control at 25 ppm in the test on Phakopsora pachyrhizi (setting [4]) is greater than 80%; with Phakopsora pachyrhizi (setting [5]), less than 80%. Besides, the pest or weed control at 121.5 g/ha is greater than 80% in the test with Puccinia triticina (setting [6]) and less than 80% in the test on Puccinia triticina (setting [7]).
Turning to `CCC(C)C(=O)Oc1c(OC)ccnc1C(=O)N[C@@H](C)C(=O)O[C@@H](C)[C@H](c1ccc(F)cc1C)C(C)C` (some centres unmarked) [Compound 355], the pest or weed control at 100 ppm is less than 80% in test [1]; less than 80% in test [2]; less than 80% with Rhyncosporium secalis; greater than 80% in test [3]; greater than 80% in the test with Cercospora beticola. Also, the pest or weed control at 25 ppm in the test with Phakopsora pachyrhizi (setting [4]) and with Phakopsora pachyrhizi (setting [5]) was greater than 80% in each case. The pest or weed control at 121.5 g/ha in the test with Puccinia triticina (setting [6]) is greater than 80%; in the test with Puccinia triticina (setting [7]), less than 80%.
For the molecule `COc1cc[n+]([O-])c(C(=O)N[C@@H](C)C(=O)O[C@@H](C)[C@H](c2ccc(F)cc2C)C(C)C)c1O` [Compound 218], the pest or weed control at 100 ppm in test [1] is less than 0%; in test [2], greater than 80%; in the test with Rhyncosporium secalis it was less than 80%; in test [3] it was less than 80%; in the test on Cercospora beticola, greater than 80%. Moreover, the pest or weed control at 25 ppm in the test on Phakopsora pachyrhizi (setting [4]) and in the test on Phakopsora pachyrhizi (setting [5]) was less than 80% each time. The pest or weed control at 121.5 g/ha in the test on Puccinia triticina (setting [6]) was greater than 80%; in the test on Puccinia triticina (setting [7]) it was less than 80%.
For `COc1ccnc(C(=O)N[C@@H](C)C(=O)O[C@@H](C)[C@H](c2ccccc2C)C(C)C)c1OC(C)=O` [Compound 364], the pest or weed control at 100 ppm in test [1] is less than 80%; in test [2], greater than 80%; in the test on Rhyncosporium secalis, less than 80%; in test [3], greater than 80%; in the test on Cercospora beticola, greater than 80%. For the same molecule, the pest or weed control at 25 ppm in the test with Phakopsora pachyrhizi (setting [4]) and in the test with Phakopsora pachyrhizi (setting [5]) was greater than 80% each time. The pest or weed control at 121.5 g/ha in the test on Puccinia triticina (setting [8]) is greater than 80%; in the test on Puccinia triticina (setting [9]), less than 80%.
With `COc1ccnc(C(=O)N[C@@H](C)C(=O)O[C@@H](C)[C@H](c2ccc(F)cc2C)C(C)C)c1OC(=O)CC(C)C` [Compound 356], the pest or weed control at 100 ppm in test [1] is less than 80%; in test [2], less than 80%; with Rhyncosporium secalis, less than 80%; in test [3], less than 80%; in the test with Cercospora beticola it was greater than 80%. Further, the pest or weed control at 25 ppm with Phakopsora pachyrhizi (setting [4]) and in the test on Phakopsora pachyrhizi (setting [5]) was greater than 80% in each case. The pest or weed control at 121.5 g/ha with Puccinia triticina (setting [6]) was greater than 80%; with Puccinia triticina (setting [7]), less than 80%.
Take `COc1ccnc(C(=O)N[C@@H](C)C(=O)O[C@@H](C)[C@H](c2ccc(F)cc2C)C(C)C)c1OC(C)=O` [Compound 186]: the pest or weed control at 100 ppm in test [1] is less than 80%; in test [2] it was greater than 80%; in the test with Rhyncosporium secalis, less than 80%; in test [3], less than 0%; in the test on Cercospora beticola, greater than 80%. The pest or weed control at 25 ppm in the test on Phakopsora pachyrhizi (setting [4]) and in the test on Phakopsora pachyrhizi (setting [5]) was greater than 80% in each case. Moreover, the pest or weed control at 121.5 g/ha with Puccinia triticina (setting [6]) and in the test on Puccinia triticina (setting [7]) was greater than 80% in each case.
With `COc1ccnc(C(=O)N[C@@H](C)C(=O)O[C@@H](C)[C@H](c2cccc(C)c2C)C(C)C)c1OC(C)=O` [Compound 363], the pest or weed control at 100 ppm in test [1] is less than 0%; in test [2] it was greater than 80%; in the test with Rhyncosporium secalis, less than 80%; in test [3], less than 80%; with Cercospora beticola, greater than 80%. For the same molecule, the pest or weed control at 25 ppm with Phakopsora pachyrhizi (setting [4]) and with Phakopsora pachyrhizi (setting [5]) was greater than 80% each time. Further, the pest or weed control at 121.5 g/ha in the test with Puccinia triticina (setting [6]) and with Puccinia triticina (setting [7]) was greater than 80% in each case.
Consider `COc1ccnc(C(=O)N[C@@H](C)C(=O)O[C@@H](C)[C@H](c2ccccc2C)C(C)C)c1OC(=O)C(C)C` [Compound 375], for which the pest or weed control at 100 ppm was less than 80% in test [1]; greater than 80% in test [2]; less than 80% in the test on Rhyncosporium secalis; greater than 80% in test [3]; greater than 80% with Cercospora beticola. For the same molecule, the pest or weed control at 25 ppm in the test on Phakopsora pachyrhizi (setting [4]) and in the test on Phakopsora pachyrhizi (setting [5]) was greater than 80% each time. In addition, the pest or weed control at 121.5 g/ha in the test on Puccinia triticina (setting [8]) and in the test on Puccinia triticina (setting [9]) was greater than 80% in each case.
Consider `CCOC(=O)Oc1c(OC)ccnc1C(=O)N[C@@H](C)C(=O)O[C@@H](C)[C@H](c1ccc(F)cc1C)C(C)C` [Compound 372], for which the pest or weed control at 100 ppm was greater than 80% in test [1]; less than 80% in test [2]; less than 80% in the test with Rhyncosporium secalis; greater than 80% in test [3]; greater than 80% in the test with Cercospora beticola. In addition, the pest or weed control at 25 ppm with Phakopsora pachyrhizi (setting [4]) and with Phakopsora pachyrhizi (setting [5]) was greater than 80% in each case.
Regarding `CCOC(=O)Oc1c(OC)ccnc1C(=O)N(C(=O)OCC)[C@@H](C)C(=O)O[C@@H](C)[C@H](c1ccc(F)cc1C)C(C)C` [Compound 371], the pest or weed control at 100 ppm was less than 80% in test [1]; less than 80% in test [2]; less than 80% with Rhyncosporium secalis; greater than 80% in test [3]; greater than 80% with Cercospora beticola. Also, the pest or weed control at 25 ppm in the test with Phakopsora pachyrhizi (setting [4]) and in the test with Phakopsora pachyrhizi (setting [5]) was greater than 80% each time.

(Values after patent US20180186742A1, “PICOLINAMIDES AS FUNGICIDES” (Dow AgroSciences LLC, priority 2017, published 2018).)
